Source: patent publication US7932270B2 (Cytokinetics, Inc., priority 2006, dated 2011)

Target: T1, chicken gizzard smooth muscle myosin subfragment-1 chemically crosslinked to cardiac or skeletal actin (Gallus gallus, UniProt P10587)
T1 construct: chicken gizzard smooth muscle myosin subfragment-1; from tissue; host or cells: chicken gizzard
Experiment: Smooth muscle myosin ATPase dose response assay (pyruvate kinase/horseradish peroxidase/pyruvate oxidase-coupled, amplex red fluorescence)
Format: biochemical
Details: read-out: IC50 Arithmetic Mean
Method: In Vitro Model of Dose Dependent Smooth Muscle Myosin ATPase Modulation
Screening assays were performed using a pyruvate kinase and lactate dehydrogenase-coupled ATPase assay containing the following reagents: Potassium PIPES (50 mM), MgCl2 (3 mM), KCl (100 mM), ATP (0.15 mM), DTT (1 mM), BSA (0.1 mg/ml), NADH (0.5 mM), PEP (1.5 mM), pyruvate kinase (4 U/ml), lactate dehydrogenase (8 U/ml), and antifoam (50 ppm) (concentrations expressed are final assay concentrations). The pH was adjusted to 6.80 at 22° C. by addition of potassium hydroxide. Lead optimization assays were performed with a more sensitive pyruvate kinase/horseradish peroxidase/pyruvate oxidase-coupled ATPase assay containing the following reagents: Potassium PIPES (12 mM), MgCl2 (2 mM), KCl (100 mM), ATP (0.15 mM), BSA (0.05 mg/ml), potassium phosphate (2 mM), amplex red (0.1 mM), PEP (0.1 mM), pyruvate kinase (4 U/ml), horseradish peroxidase (0.5 U/ml), pyruvate oxidase (0.5 U/ml), and antifoam (50 ppm) (concentrations expressed are final assay concentrations). The pH was adjusted to 7.00 at 22° C. by addition of potassium hydroxide.
The protein components specific to this assay are chicken gizzard smooth muscle myosin subfragment-1 that has been chemically crosslinked to either cardiac or skeletal actin using an excess of 1-Ethyl-3-[3-dimethylaminopropyl]carbodiimide hydrochloride and N-hydroxysuccinimide. The exact concentration of the crosslinked smooth muscle myosin in the assay is determined empirically, by titration to achieve a desired rate of ATP hydrolysis. The concentration varies between protein preparations due to variations in the fraction of active molecules in each preparation.
Compound dose response assays are performed by first preparing a dilution series of test compound, each with an assay mixture containing potassium PIPES, MgCl2, KCl, ATP, BSA, potassium phosphate, amplex red, PEP, crosslinked smooth muscle actomyosin (subfragment-1), antifoam, and water. The assay is started by adding an equal volume of solution containing potassium Pipes, MgCl2, KCl, BSA, potassium phosphate, pyruvate kinase, horseradish peroxidase, pyruvate oxidase, antifoam, and water. ATP hydrolysis is monitored by measuring the fluorescence of amplex red (excitation at 480 nm, emission at 615 nm). The resulting dose response curve is fit by the 4 parameter equation y=Bottom+((Top-Bottom)/(1+((IC50/X)^Hill))). The IC50 is defined as the concentration at which ATPase activity is midway between the top and bottom of the dose response curve.

T1 sequence (P02607 2-151): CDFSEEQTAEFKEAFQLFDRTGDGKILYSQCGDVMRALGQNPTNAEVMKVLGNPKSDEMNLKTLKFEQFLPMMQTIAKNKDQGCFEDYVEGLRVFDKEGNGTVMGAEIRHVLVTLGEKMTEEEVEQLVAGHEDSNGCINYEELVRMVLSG
T1 sequence (P10587 84-789): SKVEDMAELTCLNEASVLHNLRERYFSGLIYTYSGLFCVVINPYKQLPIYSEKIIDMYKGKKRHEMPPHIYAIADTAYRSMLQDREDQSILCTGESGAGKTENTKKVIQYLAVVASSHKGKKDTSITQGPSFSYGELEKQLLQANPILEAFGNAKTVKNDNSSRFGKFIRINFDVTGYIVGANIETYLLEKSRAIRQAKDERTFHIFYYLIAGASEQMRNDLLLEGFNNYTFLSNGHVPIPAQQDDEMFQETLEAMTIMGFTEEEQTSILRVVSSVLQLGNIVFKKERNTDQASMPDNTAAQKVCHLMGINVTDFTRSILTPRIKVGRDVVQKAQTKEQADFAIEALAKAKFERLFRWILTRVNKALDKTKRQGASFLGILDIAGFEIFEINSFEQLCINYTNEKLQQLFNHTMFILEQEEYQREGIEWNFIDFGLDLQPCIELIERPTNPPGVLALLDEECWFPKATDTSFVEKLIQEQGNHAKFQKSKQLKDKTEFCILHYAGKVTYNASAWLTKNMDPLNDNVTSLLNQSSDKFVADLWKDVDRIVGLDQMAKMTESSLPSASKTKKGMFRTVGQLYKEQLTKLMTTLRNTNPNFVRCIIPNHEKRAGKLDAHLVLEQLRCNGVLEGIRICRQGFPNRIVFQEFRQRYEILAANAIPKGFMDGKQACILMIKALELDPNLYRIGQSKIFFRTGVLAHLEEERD

Structure (SMILES)	IC50 [µM]
N#Cc1ccccc1-c1ccc(CC(=O)NCc2cccnc2)c(NCCc2cccc(F)c2)n1 [2-(6-(2-cyanophenyl)-2-{[2-(3-fluorophenyl)ethyl]amino}(3-pyridyl))-N-(3-pyridylmethyl)acetamide]	13.2
NC(=O)c1ccccc1-c1ccc(C(=O)NCc2cccnc2)c(NCCc2cccc(F)c2)n1 [2-(6-{[2-(3-fluorophenyl)ethyl]amino}-5-[N-(3-pyridylmethyl)carbamoyl]-2-pyridyl)benzamide]	16.4
Cn1cc(-c2nc(NCCc3cccc(F)c3)c(C(=O)NC[C@H]3CCN3C(=O)COC(=O)CNC(=O)OC(C)(C)C)cc2F)cn1 [2-((2R)-2-{[(5-fluoro-2-{[2-(3-fluorophenyl)ethyl]amino}-6-(1-methylpyrazol-4-yl)(3-pyridyl))carbonylamino]methyl}azetidinyl)-2-oxoethyl 2-[(tert-butoxy)carbonylamino]acetate]	0.191
Cn1cc(-c2nc(NCCc3cccc(F)c3)c(C(=O)NC[C@H]3CCN3C(=O)COC(=O)CN)cc2F)cn1 [2-((2R)-2-{[(5-fluoro-2-{[2-(3-fluorophenyl)ethyl]amino}-6-(1-methylpyrazol-4-yl)(3-pyridyl))carbonylamino]methyl}azetidinyl)-2-oxoethyl 2-aminoacetate]	0.045
COP(=O)(OC)OCC(=O)N1CC[C@@H]1CNC(=O)c1cc(F)c(-c2cnn(C)c2)nc1NCCc1cccc(F)c1 [2-((2R)-2-{[(5-fluoro-2-{[2-(3-fluorophenyl)ethyl]amino}-6-(1-methylpyrazol-4-yl)(3-pyridyl))carbonylamino]methyl}azetidinyl)-2-oxoethyl dimethyl phosphate]	0.4
NCC1CCCCN1C(=O)c1ccc(-c2ccccc2)nc1NCCc1ccccn1 (centres unmarked) [2-(aminomethyl)piperidyl 6-phenyl-2-[(2-(2-pyridyl)ethyl)amino](3-pyridyl) ketone]	18.2
NCCCN1C(=O)CC[C@@H]1CNC(=O)c1ccc(-c2ccccc2C(N)=O)nc1NCCc1cccc(F)c1 [2-[5-(N-{[(2R)-1-(3-aminopropyl)-5-oxopyrrolidin-2-yl]methyl}carbamoyl)-6-{[2-(3-fluorophenyl)ethyl]amino}-2-pyridyl]benzamide]	13.2
CNC(=O)CNC(=O)c1ccc(-c2cnn(C)c2)nc1NCCc1cccc(F)c1 [2-[(2-{[2-(3-fluorophenyl)ethyl]amino}6-(1-methylpyrazol-4-yl)(3-pyridyl))carbonylamino]-N-methylacetamide]	0.35
CNC(=O)CNC(=O)c1ccc(-c2ccc(CO)s2)nc1NCCc1cccc(F)c1 [2-[(2-{[2-(3-fluorophenyl)ethyl]amino}-6-[5-(hydroxymethyl)(2-thienyl)](3-pyridyl))carbonylamino]-N-methylacetamide]	0.254
CNC(=O)CNC(=O)c1ccc(-c2cn[nH]c2)nc1NCCc1cccc(F)c1 [2-[(2-{[2-(3-fluorophenyl)ethyl]amino}-6-pyrazol-4-yl(3-pyridyl))carbonylamino]-N-methylacetamide]	0.328
CNC(=O)CNC(=O)c1cc(F)c(-c2cn[nH]c2)nc1NCCc1cccc(F)c1 [2-[(5-fluoro-2-{[2-(3-fluorophenyl)ethyl]amino}-6-pyrazol-4-yl(3-pyridyl))carbonylamino]-N-methylacetamide]	0.065
CN(C)C(=O)CNC(=O)c1ccc(-c2ccccc2C#N)nc1NCCc1cccc(F)c1 [2-[(6-(2-cyanophenyl)-2-{[2-(3-fluorophenyl)ethyl]amino}(3-pyridyl))carbonylamino]-N,N-dimethylacetamide]	0.532
N#Cc1ccccc1-c1ccc(C(=O)NCC(=O)NCCO)c(NCCc2cccc(F)c2)n1 [2-[(6-(2-cyanophenyl)-2-{[2-(3-fluorophenyl)ethyl]amino}(3-pyridyl))carbonylamino]-N-(2-hydroxyethyl)acetamide]	2.07
N#Cc1ccccc1-c1ccc(C(=O)NCC(=O)NCCCO)c(NCCc2cccc(F)c2)n1 [2-[(6-(2-cyanophenyl)-2-{[2-(3-fluorophenyl)ethyl]amino}(3-pyridyl))carbonylamino]-N-(3-hydroxypropyl)acetamide]	5.84
CS(=O)(=O)NC(=O)CNC(=O)c1ccc(-c2ccccc2C#N)nc1NCCc1cccc(F)c1 [2-[(6-(2-cyanophenyl)-2-{[2-(3-fluorophenyl)ethyl]amino}(3-pyridyl))carbonylamino]-N-(methylsulfonyl)acetamide]	24.9
CNCCNC(=O)CNC(=O)c1ccc(-c2ccccc2C#N)nc1NCCc1cccc(F)c1 [2-[(6-(2-cyanophenyl)-2-{[2-(3-fluorophenyl)ethyl]amino}(3-pyridyl))carbonylamino]-N-[2-(methylamino)ethyl]acetamide]	11.1
CNC(=O)CNC(=O)c1ccc(-c2ccccc2C#N)nc1NCCc1cccc(F)c1 [2-[(6-(2-cyanophenyl)-2-{[2-(3-fluorophenyl)ethyl]amino}(3-pyridyl))carbonylamino]-N-methylacetamide]	0.102
CN(CCNC(=O)c1ccc(-c2ccccc2C#N)nc1NCCc1cccc(F)c1)C(=O)CNC(=O)OC(C)(C)C [2-[(tert-butoxy)carbonylamino]-N-{2-[(6-(2-cyanophenyl)-2-{[2-(3-fluorophenyl)ethyl]amino}(3-pyridyl))carbonylamino]ethyl}-N-methylacetamide]	15.3
Cn1cc(-c2nc(NCCc3cccc(F)c3)c(C(=O)NCCCNC(=O)CNC(=O)OC(C)(C)C)cc2F)cn1 [2-[(tert-butoxy)carbonylamino]-N-{3-[(5-fluoro-2-{[2-(3-fluorophenyl)ethyl]amino}-6-(1-methylpyrazol-4-yl)(3-pyridyl))carbonylamino]propyl}acetamide]	0.768
NCC(O)c1ccc(-c2ccccc2)nc1NCCc1cccc(F)c1 (centres unmarked) [2-amino-1-(2-{[2-(3-fluorophenyl)ethyl]amino}-6-phenyl(3-pyridyl))ethan-1-ol]	52.5
CN(CCNC(=O)c1ccc(-c2ccccc2C#N)nc1NCCc1cccc(F)c1)C(=O)CN [2-amino-N-{2-[(6-(2-cyanophenyl)-2-{[2-(3-fluorophenyl)ethyl]amino}(3-pyridyl))carbonylamino]ethyl}-N-methylacetamide]	1.37
N#Cc1ccccc1-c1ccc(C(=O)NCCNC(=O)CN)c(NCCc2cccc(F)c2)n1 [2-amino-N-{2-[(6-(2-cyanophenyl)-2-{[2-(3-fluorophenyl)ethyl]amino}(3-pyridyl))carbonylamino]ethyl}acetamide]	1.23
Cn1cc(-c2nc(NCCc3cccc(F)c3)c(C(=O)NCCCNC(=O)CN)cc2F)cn1 [2-amino-N-{3-[(5-fluoro-2-{[2-(3-fluorophenyl)ethyl]amino}-6-(1-methylpyrazol-4-yl)(3-pyridyl))carbonylamino]propyl}acetamide]	2.49
N#Cc1ccccc1-c1ccc(C(=O)NC[C@H]2CCCCN2C(=O)OCCN)c(NCCc2cccc(F)c2)n1 [2-aminoethyl (2R)-2-{[(6-(2-cyanophenyl)-2-{[2-(3-fluorophenyl)ethyl]amino}(3-pyridyl))carbonylamino]methyl}piperidinecarboxylate]	0.091
N#Cc1ccccc1-c1ccc(C(=O)NC[C@H]2CCCN2C(=O)OCCN)c(NCCc2cccc(F)c2)n1 [2-aminoethyl (2R)-2-{[(6-(2-cyanophenyl)-2-{[2-(3-fluorophenyl)ethyl]amino}(3-pyridyl))carbonylamino]methyl}pyrrolidinecarboxylate]	0.027
N#Cc1ccccc1-c1ccc(C(=O)NC[C@H]2CCCCN2C(=O)OCCCl)c(NCCc2cccc(F)c2)n1 [2-chloroethyl (2R)-2-{[(6-(2-cyanophenyl)-2-{[2-(3-fluorophenyl)ethyl]amino}(3-pyridyl))carbonylamino]methyl}piperidinecarboxylate]	2.69
NC(=O)CNCC(O)c1ccc(-c2ccccc2)nc1NCCc1cccc(F)c1 (centres unmarked) [2-{[2-(2-{[2-(3-fluorophenyl)ethyl]amino}-6-phenyl(3-pyridyl))-2-hydroxyethyl]amino}acetamide]	51.6
CS(=O)(=O)NCC1CCCCN1C(=O)c1ccc(-c2ccccc2)nc1NCCc1ccccn1 (centres unmarked) [2-{[(methylsulfonyl)amino]methyl}piperidyl 6-phenyl-2-[(2-(2-pyridyl)ethyl)amino](3-pyridyl) ketone]	22.2
NC(=O)c1cccc(CCNc2nc(-c3ccccc3)ccc2C(=O)NCc2cccnc2)c1 [3-[2-({6-phenyl-3-[N-(3-pyridylmethyl)carbamoyl]-2-pyridyl}amino)ethyl]benzamide]	11.5
